According to ChEMBL document CHEMBL4507290 (2021):

Legend:
[1] = biological target: Mitogen-activated protein kinase 8 (Homo sapiens) (UniProt P45983); settings: Compound concentration 1000.0 nM
[2] = biological target: Mitogen-activated protein kinase kinase kinase kinase 4 (Homo sapiens) (UniProt O95819); settings: Compound concentration 1000.0 nM
[3] = biological target: Serine/threonine-protein kinase pim-3 (Homo sapiens) (UniProt Q86V86); settings: Compound concentration 1000.0 nM
[4] = biological target: Serine/threonine-protein kinase tousled-like 1 (Homo sapiens) (UniProt Q9UKI8); settings: Compound concentration 1000.0 nM
[5] = biological target: Bone morphogenetic protein receptor type-2 (Homo sapiens) (UniProt Q13873); settings: Compound concentration 1000.0 nM
[6] = biological target: Macrophage-stimulating protein receptor (Homo sapiens) (UniProt Q04912); settings: Compound concentration 1000.0 nM
[7] = tested on: Receptor-type tyrosine-protein kinase FLT3 (Homo sapiens), P36888 [R834Q]; settings: Compound concentration 1000.0 nM
[8] = biological target: Megakaryocyte-associated tyrosine-protein kinase (Homo sapiens) (UniProt P42679); settings: Compound concentration 1000.0 nM
[9] = biological target: Dual specificity tyrosine-phosphorylation-regulated kinase 1A (Homo sapiens) (UniProt Q13627); settings: Compound concentration 1000.0 nM
[10] = biological target: Aurora kinase C (Homo sapiens) (UniProt Q9UQB9); settings: Compound concentration 1000.0 nM
[11] = biological target: Muscle, skeletal receptor tyrosine-protein kinase (Homo sapiens) (UniProt O15146); settings: Compound concentration 1000.0 nM
[12] = biological target: Cyclin-dependent kinase-like 1 (Homo sapiens) (UniProt Q00532); settings: Compound concentration 1000.0 nM
[13] = biological target: Cyclin-dependent kinase 8 (Homo sapiens) (UniProt P49336); settings: Compound concentration 1000.0 nM
[14] = biological target: Mitogen-activated protein kinase kinase kinase 12 (Homo sapiens) (UniProt Q12852); settings: Compound concentration 1000.0 nM
[15] = biological target: 5'-AMP-activated protein kinase catalytic subunit alpha-2 (Homo sapiens) (UniProt P54646); settings: Compound concentration 1000.0 nM
[16] = tested on: Phosphatidylinositol 4,5-bisphosphate 3-kinase catalytic subunit alpha isoform (Homo sapiens), P42336 [C420R]; settings: Compound concentration 1000.0 nM
[17] = biological target: Activated CDC42 kinase 1 (Homo sapiens) (UniProt Q07912); settings: Compound concentration 1000.0 nM
[18] = biological target: Platelet-derived growth factor receptor beta (Homo sapiens) (UniProt P09619); settings: Compound concentration 1000.0 nM
[19] = biological target: Serine/threonine-protein kinase D3 (Homo sapiens) (UniProt O94806); settings: Compound concentration 1000.0 nM
[20] = biological target: Serine/threonine-protein kinase MARK1 (Homo sapiens) (UniProt Q9P0L2); settings: Compound concentration 1000.0 nM
[21] = biological target: Mitogen-activated protein kinase kinase kinase 4 (Homo sapiens) (UniProt Q9Y6R4); settings: Compound concentration 1000.0 nM
[22] = biological target: Mitogen-activated protein kinase 11 (Homo sapiens) (UniProt Q15759); settings: Compound concentration 1000.0 nM
[23] = biological target: Dual specificity protein kinase CLK1 (Homo sapiens) (UniProt P49759); settings: Compound concentration 1000.0 nM
[24] = biological target: Tyrosine-protein kinase JAK2 (Homo sapiens) (UniProt O60674); settings: Compound concentration 1000.0 nM
[25] = biological target: Focal adhesion kinase 1 (Homo sapiens) (UniProt Q05397); settings: Compound concentration 1000.0 nM
[26] = biological target: Protein kinase C epsilon type (Homo sapiens) (UniProt Q02156); settings: Compound concentration 1000.0 nM
[27] = biological target: Mitogen-activated protein kinase 14 (Homo sapiens) (UniProt Q16539); settings: Compound concentration 1000.0 nM
[28] = biological target: 3-phosphoinositide-dependent protein kinase 1 (Homo sapiens) (UniProt O15530); settings: Compound concentration 1000.0 nM
[29] = biological target: Leucine-rich repeat serine/threonine-protein kinase 2 (Homo sapiens) (UniProt Q5S007); settings: Compound concentration 1000.0 nM
[30] = biological target: Receptor-type tyrosine-protein kinase FLT3 (Homo sapiens) (UniProt P36888); settings: Compound concentration 1000.0 nM
[31] = biological target: Serine/threonine-protein kinase PLK3 (Homo sapiens) (UniProt Q9H4B4); settings: Compound concentration 1000.0 nM
[32] = biological target: Dual specificity mitogen-activated protein kinase kinase 5 (Homo sapiens) (UniProt Q13163); settings: Compound concentration 1000.0 nM
[33] = biological target: Receptor-interacting serine/threonine-protein kinase 2 (Homo sapiens) (UniProt O43353); settings: Compound concentration 1000.0 nM
[34] = biological target: Cyclin-dependent kinase 11B (Homo sapiens) (UniProt P21127); settings: Compound concentration 1000.0 nM
[35] = biological target: Cyclin-dependent kinase 19 (Homo sapiens) (UniProt Q9BWU1); settings: Compound concentration 1000.0 nM
[36] = biological target: Macrophage colony-stimulating factor 1 receptor (Homo sapiens) (UniProt P07333); settings: Compound concentration 1000.0 nM
[37] = biological target: Interleukin-1 receptor-associated kinase 1 (Homo sapiens) (UniProt P51617); settings: Compound concentration 1000.0 nM
[38] = biological target: Serine/threonine-protein kinase Nek9 (Homo sapiens) (UniProt Q8TD19); settings: Compound concentration 1000.0 nM
[39] = biological target: Mitogen-activated protein kinase kinase kinase 9 (Homo sapiens) (UniProt P80192); settings: Compound concentration 1000.0 nM
[40] = tested on: Epidermal growth factor receptor (Homo sapiens), P00533 [L861Q]; settings: Compound concentration 1000.0 nM
[41] = biological target: Uncharacterized serine/threonine-protein kinase SBK3 (Homo sapiens) (UniProt P0C264); settings: Compound concentration 1000.0 nM
[42] = biological target: Serine/threonine-protein kinase 4 (Homo sapiens) (UniProt Q13043); settings: Compound concentration 1000.0 nM
[43] = biological target: Proto-oncogene tyrosine-protein kinase receptor Ret (Homo sapiens) (UniProt P07949); settings: Compound concentration 1000.0 nM
[44] = biological target: Sodium-dependent noradrenaline transporter (Homo sapiens) (UniProt P23975); settings: Compound concentration 10.0 uM
[45] = biological target: MAP/microtubule affinity-regulating kinase 4 (Homo sapiens) (UniProt Q96L34); settings: Compound concentration 1000.0 nM

Cyclin-dependent kinase 11B (Homo sapiens), sequence (P21127 whole entry): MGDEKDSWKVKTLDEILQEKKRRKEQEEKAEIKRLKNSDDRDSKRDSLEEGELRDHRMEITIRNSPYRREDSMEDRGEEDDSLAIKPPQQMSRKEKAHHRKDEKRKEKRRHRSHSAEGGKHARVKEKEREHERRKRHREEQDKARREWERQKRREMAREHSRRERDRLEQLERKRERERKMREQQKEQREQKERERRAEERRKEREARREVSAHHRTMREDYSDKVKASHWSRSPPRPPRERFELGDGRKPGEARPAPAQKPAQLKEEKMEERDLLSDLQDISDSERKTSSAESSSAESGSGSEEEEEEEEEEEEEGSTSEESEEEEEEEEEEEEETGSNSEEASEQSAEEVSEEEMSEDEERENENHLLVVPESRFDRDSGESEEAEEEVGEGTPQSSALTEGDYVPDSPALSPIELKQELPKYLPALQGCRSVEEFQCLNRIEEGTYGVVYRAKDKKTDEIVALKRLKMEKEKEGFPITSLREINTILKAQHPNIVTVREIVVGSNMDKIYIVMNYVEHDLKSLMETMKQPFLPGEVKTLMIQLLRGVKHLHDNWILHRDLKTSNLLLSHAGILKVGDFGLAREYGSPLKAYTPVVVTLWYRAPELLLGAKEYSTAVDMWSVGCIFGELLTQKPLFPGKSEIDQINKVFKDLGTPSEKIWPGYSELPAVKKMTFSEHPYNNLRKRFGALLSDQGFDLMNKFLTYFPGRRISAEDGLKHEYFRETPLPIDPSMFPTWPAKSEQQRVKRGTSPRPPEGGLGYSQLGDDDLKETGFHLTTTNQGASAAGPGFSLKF
Mitogen-activated protein kinase kinase kinase 9 (Homo sapiens), sequence (P80192 whole entry, looked up): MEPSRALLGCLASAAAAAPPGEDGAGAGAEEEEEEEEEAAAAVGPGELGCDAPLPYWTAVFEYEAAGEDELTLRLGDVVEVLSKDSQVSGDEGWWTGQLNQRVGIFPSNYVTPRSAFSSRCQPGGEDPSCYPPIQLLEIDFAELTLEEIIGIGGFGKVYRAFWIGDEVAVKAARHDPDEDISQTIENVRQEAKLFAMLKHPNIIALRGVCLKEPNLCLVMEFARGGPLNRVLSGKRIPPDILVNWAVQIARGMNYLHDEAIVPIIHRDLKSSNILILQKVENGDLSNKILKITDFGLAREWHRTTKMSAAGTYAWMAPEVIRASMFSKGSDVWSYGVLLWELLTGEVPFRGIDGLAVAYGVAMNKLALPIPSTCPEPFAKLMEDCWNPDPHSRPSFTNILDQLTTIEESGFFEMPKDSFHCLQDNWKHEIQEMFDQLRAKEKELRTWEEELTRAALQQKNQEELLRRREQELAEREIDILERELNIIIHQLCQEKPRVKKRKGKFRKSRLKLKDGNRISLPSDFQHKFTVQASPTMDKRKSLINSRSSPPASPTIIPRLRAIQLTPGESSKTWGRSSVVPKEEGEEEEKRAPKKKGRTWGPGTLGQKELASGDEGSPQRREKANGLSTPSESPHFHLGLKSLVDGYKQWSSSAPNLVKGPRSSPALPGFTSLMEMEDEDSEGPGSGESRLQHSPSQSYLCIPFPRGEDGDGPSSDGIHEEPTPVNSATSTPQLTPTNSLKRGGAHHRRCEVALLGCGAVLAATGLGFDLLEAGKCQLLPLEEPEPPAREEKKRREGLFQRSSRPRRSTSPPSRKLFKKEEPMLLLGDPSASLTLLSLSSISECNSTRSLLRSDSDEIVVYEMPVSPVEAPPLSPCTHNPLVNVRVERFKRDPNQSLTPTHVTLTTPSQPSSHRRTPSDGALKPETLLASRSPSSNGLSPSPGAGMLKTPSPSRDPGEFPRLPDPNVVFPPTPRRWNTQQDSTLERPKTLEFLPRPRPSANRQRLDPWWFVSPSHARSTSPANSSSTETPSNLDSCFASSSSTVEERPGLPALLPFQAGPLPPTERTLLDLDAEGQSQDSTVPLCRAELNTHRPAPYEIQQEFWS
Serine/threonine-protein kinase MARK1 (Homo sapiens), sequence (Q9P0L2 whole entry, looked up): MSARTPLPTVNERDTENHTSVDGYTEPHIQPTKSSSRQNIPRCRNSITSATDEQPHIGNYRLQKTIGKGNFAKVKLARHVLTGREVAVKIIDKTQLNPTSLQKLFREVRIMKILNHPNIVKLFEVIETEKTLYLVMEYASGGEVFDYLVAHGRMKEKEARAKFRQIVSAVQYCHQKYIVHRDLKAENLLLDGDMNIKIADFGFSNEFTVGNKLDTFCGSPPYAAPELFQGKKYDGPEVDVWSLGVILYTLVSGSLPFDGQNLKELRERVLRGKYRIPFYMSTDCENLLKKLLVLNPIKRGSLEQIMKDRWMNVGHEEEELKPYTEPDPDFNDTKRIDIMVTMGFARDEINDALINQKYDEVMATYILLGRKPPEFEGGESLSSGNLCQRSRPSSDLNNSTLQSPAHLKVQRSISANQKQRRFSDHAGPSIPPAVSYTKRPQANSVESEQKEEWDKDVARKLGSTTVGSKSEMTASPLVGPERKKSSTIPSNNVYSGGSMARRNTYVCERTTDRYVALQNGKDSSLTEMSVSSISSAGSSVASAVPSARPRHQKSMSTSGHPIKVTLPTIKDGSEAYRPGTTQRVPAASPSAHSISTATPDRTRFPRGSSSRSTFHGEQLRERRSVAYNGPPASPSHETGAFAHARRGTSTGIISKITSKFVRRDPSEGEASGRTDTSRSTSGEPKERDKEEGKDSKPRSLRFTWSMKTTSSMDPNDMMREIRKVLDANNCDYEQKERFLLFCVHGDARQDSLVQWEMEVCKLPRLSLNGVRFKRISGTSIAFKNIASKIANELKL
Mitogen-activated protein kinase 11 (Homo sapiens), sequence (Q15759 whole entry): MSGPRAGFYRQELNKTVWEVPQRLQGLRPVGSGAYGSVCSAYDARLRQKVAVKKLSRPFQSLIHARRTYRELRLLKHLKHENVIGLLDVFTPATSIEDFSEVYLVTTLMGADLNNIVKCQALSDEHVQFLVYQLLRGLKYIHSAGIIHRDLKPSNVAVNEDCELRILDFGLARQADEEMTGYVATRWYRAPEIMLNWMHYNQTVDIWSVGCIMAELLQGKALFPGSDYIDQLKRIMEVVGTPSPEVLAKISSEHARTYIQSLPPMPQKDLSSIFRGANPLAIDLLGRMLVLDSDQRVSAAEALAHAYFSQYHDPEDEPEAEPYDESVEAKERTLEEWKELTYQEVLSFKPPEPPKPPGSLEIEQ
Cyclin-dependent kinase-like 1 (Homo sapiens), sequence (Q00532 whole entry): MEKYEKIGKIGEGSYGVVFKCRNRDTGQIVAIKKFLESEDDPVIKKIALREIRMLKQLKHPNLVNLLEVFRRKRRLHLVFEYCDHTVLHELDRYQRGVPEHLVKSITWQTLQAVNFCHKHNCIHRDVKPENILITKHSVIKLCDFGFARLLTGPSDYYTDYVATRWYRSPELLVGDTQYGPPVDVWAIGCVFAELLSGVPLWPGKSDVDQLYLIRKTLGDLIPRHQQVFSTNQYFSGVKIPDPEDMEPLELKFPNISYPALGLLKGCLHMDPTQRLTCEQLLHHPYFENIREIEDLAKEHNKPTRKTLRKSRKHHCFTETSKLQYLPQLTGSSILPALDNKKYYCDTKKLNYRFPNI
Muscle, skeletal receptor tyrosine-protein kinase (Homo sapiens), sequence (O15146 whole entry): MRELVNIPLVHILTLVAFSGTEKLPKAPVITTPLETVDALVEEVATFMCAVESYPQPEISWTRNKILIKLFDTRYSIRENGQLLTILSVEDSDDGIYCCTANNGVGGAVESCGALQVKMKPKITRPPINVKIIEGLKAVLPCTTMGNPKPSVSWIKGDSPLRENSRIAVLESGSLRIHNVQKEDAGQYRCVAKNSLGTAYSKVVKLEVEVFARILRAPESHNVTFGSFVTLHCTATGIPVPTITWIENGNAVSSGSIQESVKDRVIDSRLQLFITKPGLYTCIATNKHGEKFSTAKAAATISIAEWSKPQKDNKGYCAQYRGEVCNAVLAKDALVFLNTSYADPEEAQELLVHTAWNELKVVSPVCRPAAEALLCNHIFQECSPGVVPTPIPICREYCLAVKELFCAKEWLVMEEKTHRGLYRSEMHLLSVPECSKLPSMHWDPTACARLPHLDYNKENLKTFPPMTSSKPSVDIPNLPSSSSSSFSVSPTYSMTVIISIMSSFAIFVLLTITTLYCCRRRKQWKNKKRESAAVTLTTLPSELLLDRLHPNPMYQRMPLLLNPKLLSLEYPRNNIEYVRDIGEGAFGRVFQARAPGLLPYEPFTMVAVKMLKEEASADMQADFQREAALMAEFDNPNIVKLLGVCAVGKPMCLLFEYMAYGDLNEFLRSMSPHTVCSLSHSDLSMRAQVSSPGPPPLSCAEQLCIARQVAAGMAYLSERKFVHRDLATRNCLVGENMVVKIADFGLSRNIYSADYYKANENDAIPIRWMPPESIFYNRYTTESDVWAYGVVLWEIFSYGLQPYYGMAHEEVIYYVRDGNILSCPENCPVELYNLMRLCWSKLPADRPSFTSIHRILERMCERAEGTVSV
Serine/threonine-protein kinase tousled-like 1 (Homo sapiens), sequence (Q9UKI8 whole entry): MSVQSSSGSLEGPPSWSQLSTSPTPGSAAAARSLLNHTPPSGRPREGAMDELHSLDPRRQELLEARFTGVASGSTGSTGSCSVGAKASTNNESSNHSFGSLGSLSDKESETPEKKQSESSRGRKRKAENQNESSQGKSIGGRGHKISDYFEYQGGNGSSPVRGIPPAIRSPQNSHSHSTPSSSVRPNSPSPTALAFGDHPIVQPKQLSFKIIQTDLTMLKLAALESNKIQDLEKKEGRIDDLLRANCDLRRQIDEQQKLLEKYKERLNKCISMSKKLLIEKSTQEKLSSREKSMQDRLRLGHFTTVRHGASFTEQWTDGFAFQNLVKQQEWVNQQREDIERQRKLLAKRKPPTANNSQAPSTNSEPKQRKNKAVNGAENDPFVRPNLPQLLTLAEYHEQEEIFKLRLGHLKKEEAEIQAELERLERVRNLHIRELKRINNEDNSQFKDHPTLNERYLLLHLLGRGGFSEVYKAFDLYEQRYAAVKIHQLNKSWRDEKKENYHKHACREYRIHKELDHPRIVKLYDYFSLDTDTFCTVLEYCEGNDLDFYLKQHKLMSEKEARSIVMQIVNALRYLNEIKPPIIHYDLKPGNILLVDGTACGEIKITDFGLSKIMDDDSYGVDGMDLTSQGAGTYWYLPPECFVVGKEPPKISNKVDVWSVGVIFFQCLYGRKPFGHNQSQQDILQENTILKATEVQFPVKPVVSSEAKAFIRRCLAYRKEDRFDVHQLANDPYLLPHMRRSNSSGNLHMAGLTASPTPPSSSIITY

CN([C@@H]1CCc2c(CC(=O)O)c3ccccc3n2C1)S(=O)(=O)c1ccc(F)cc1 [MK-7246]
inactive: residual activity [1] 77% | residual activity [2] 100% | residual activity [3] 100% | residual activity [4] 100% | residual activity [5] 100% | residual activity [6] 93% | residual activity [7] 100% | residual activity [8] 100% | residual activity [9] 69% | residual activity [10] 100% | residual activity [11] 97% | residual activity [12] 100% | residual activity [13] 100% | residual activity [14] 100% | residual activity [15] 100% | residual activity [16] 100% | residual activity [17] 100% | residual activity [18] 97% | residual activity [19] 94% | residual activity [20] 100% | residual activity [21] 87% | residual activity [22] 88% | residual activity [23] 100% | residual activity [24] 100% | residual activity [25] 100% | residual activity [26] 94% | residual activity [27] 100% | residual activity [28] 100% | residual activity [29] 100% | residual activity [30] 100% | residual activity [31] 85% | residual activity [32] 100% | residual activity [33] 92% | residual activity [34] 100% | residual activity [35] 94% | residual activity [36] 100% | residual activity [37] 78% | residual activity [38] 100% | residual activity [39] 100% | residual activity [40] 100% | residual activity [41] 100% | residual activity [42] 98% | residual activity [43] 100% | inhibition [44] 23.8% | residual activity [45] 100%

CN([C@@H]1CCc2c(CC(=O)O)c3cc(S(C)(=O)=O)ccc3n2C1)S(=O)(=O)c1ccc(F)cc1
inactive: residual activity [1] 90% | residual activity [2] 100% | residual activity [3] 100% | residual activity [4] 100% | residual activity [5] 100% | residual activity [6] 94% | residual activity [7] 100% | residual activity [8] 100% | residual activity [9] 81% | residual activity [10] 78% | residual activity [11] 100% | residual activity [12] 100% | residual activity [13] 100% | residual activity [14] 100% | residual activity [15] 100% | residual activity [16] 98% | residual activity [17] 92% | residual activity [18] 86% | residual activity [19] 100% | residual activity [20] 89% | residual activity [21] 79% | residual activity [22] 83% | residual activity [23] 100% | residual activity [24] 100% | residual activity [25] 99% | residual activity [26] 87% | residual activity [27] 100% | residual activity [28] 100% | residual activity [29] 100% | residual activity [30] 100% | residual activity [31] 70% | residual activity [32] 100% | residual activity [33] 100% | residual activity [34] 100% | residual activity [35] 100% | residual activity [36] 100% | residual activity [37] 91% | residual activity [38] 81% | residual activity [39] 91% | residual activity [40] 100% | residual activity [42] 97% | residual activity [43] 100% | inhibition [44] 22.4% | residual activity [45] 100%
active: residual activity [41] 49%
